We go through one molecule from PMC11397024, “Strategic Fluorination to Achieve a Potent, Selective, Metabolically Stable, and Orally Bioavailable Inhibitor of CSNK2” (Molecules, 2024).

Converted amounts (≈) assume the structure as drawn.

One data set is described as follows: Kinetic solubility. The data set is classed as physicochemical. Particulars: phosphate buffered saline, 22 °C, aqueous buffer, kinetic from dmso stock; PBS pH 7.4 from DMSO stock. The method, then:
Phosphate buffered saline (50 mL, PBS, Fisher (Pittsburgh, PA, USA), pH 7.4) was added to HPLC-grade H2O (450 mL) for a total dilution factor of 1:10 and a final PBS concentration of 1×. […] The final DMSO concentration was 2.0%, and the maximum theoretical compound concentration was 200 μM. The filter plate was heat-sealed for a 24 h incubation. The sample was placed on a rotary shaker (200 rpm) for 24 h at ambient temperature (21.6–22.8 °C) and then vacuum-filtered. All filtrates were injected into a chemiluminescent nitrogen detector for quantification. The equimolar nitrogen response of the detector was calibrated using standards that span the dynamic range of the instrument from 0.08 to 4500 μg/mL nitrogen. The filtrates were quantified with respect to this calibration curve. The calculated solubility values were corrected for background nitrogen present in DMSO and the media used to prepare the samples.

For the next data set, the target named is T1, DYRK1A (Homo sapiens, UniProt Q13627).
T1 construct: purchased Promega (NanoBRET Target Engagement K192 Kinase Selectivity System)
As to the kind of experiment: NanoBRET dose-response DYRK1A. The data set is classed as cell-based. Particulars: IC50 not determined, poor assay window.

A further data set relates to CSNK2. The data set can be described thus: In vivo CSNK2 inhibition (substrate phosphorylation in lungs). Set-up: species or system Balb/c mice. The conditions noted are these: 30 mg/kg p.o. b.i.d. Here is the method:
Balb/c mice (female, 8-10 weeks old, from Envigo, Inotiv, Indianapolis, IN, USA) were treated with compound 2 at 30 mg/kg p.o. in a vehicle (DMSO/PEG-400/Water (v/v/v), 10:30:60). Mice were dosed every 12 h for a total of 36 h (3 doses). At the determined time points, mice were euthanized using an overdose of isoflurane (Baxter, Deerfield, IL, USA). Blood was collected via cardiac puncture and lung lobes were collected for downstream processing and analysis. Recovered blood was placed in EDTA tubes, spun at 5000× g in a microcentrifuge and the recovered plasma transferred to a clean tube and frozen at -80 °C until analysis. The left lung lobe was added to a 2 mL O-ring skirted tube containing 750 μL of 1 × PBS containing Phos Stop (per the manufacturer's recommendation, Roche) and glass beads. Lungs were homogenized for 60 s at 6000 rpm in a Roche MagNA Lyser. Homogenates were centrifuged for 5 min at 10,000 rpm and 500 μL of the homogenate was transferred to a clean tube and frozen at -80 °C until analysis. […] Samples were quantified using the Piece Rapid Gold BCA Protein Assay kit (ThermoFisher, A53226, Waltham, MA, USA), and 50 μg protein was run on 4-20% Tris-Glycine gels and transferred to PVDF. […] Bands were quantified using Fiji and normalized to GAPDH. […]

Data set [1] can be described thus: Hepatocyte stability, human. It is filed as in vitro ADME. Particulars: cryopreserved hepatocytes, over 2 h. The method, then: Human cryopreserved hepatocytes were supplied by BioIVT (lot QZW, 10 pooled donors, Westbury, NY, USA). Mouse cryopreserved hepatocytes were supplied by BioIVT (lot ZPG, pooled male CD-1). Vials of cryopreserved hepatocytes were removed from storage and thawed in a 37 °C water bath with gentle shaking, and then the contents were poured into a 50 mL thawing medium conical tube. Vials were centrifuged at 100× g for 10 min at room temperature. The thawing medium was aspirated, and hepatocytes were resuspended with a serum-free incubation medium to yield ~1.5 × 10^6 cells/mL. Cell viability and density were counted using AO/PI fluorescence staining, and then cells were diluted with a serum-free incubation medium to a working cell density of 0.5 × 10^6 viable cells/mL. Aliquots of 198 μL of hepatocytes were dispensed into each well of a 96-well noncoated plate. The plate was placed in an incubator for approximately 10 min. […] Peak areas were determined from extracted ion chromatograms, and the slope value, k, was determined by linear regression of the natural logarithm of the remaining percentage of the parent drug vs. incubation time curve. The intrinsic clearance (CLint in μL/min/10^6 cells) was calculated using the relationship CLint = kV/N, where V is the incubation volume (0.2 mL) and N is the number of hepatocytes per well (0.1 × 10^6 cells). […]

A short description of data set [2]: Unbound fraction in mouse plasma. The data set is classed as in vitro ADME. Particulars: read-out: unbound fraction in mouse plasma (fu).

Broadly, the solubility (kinetic) is solubility judged after dilution from a stock solution rather than from solid. By CLint scaled is commonly meant the rate of metabolic loss divided by the concentration. For orientation: fraction unbound means free concentration divided by total concentration. In the case of `CCC(=O)Nc1cc(Nc2cc(NC3CC3)n3ncc(C#N)c3n2)c(F)cc1N1CCC[C@H](NC)C1` [Compound 2, (S)-N-(5-((3-cyano-7-(cyclopropylamino)pyrazolo[1,5-a]pyrimidin-5-yl)amino)-4-fluoro-2-(3-(methylamino)piperidin-1-yl)phenyl)propionamide], the kinetic solubility at 24 h in the data set “Kinetic solubility” is 59 µg/mL (≈ 120 µM). The “occupancy in the dose-response experiment” value at DYRK1A was “no occupancy was observed up to 10 μM”. In the data set with CSNK2 (3, 6, 36 h, small decrease at 3 h, p = 0.14), the “EIF2S2 (phospho-Ser2) levels normalized to total EIF2S2 in mouse lungs” value is given as “no statistically significant difference”. Also, the “AKT (phospho-Ser129) levels normalized to total AKT in mouse lungs” value with CSNK2 (3 h time point, p = 0.0028) is given as “A decrease in the phosphorylation levels of Ser129 of AKT”. The molecule also had a CLint scaled at 1 μM in data set [1] of 6.9 mL/min/kg. The fraction unbound in data set [2] is 0.0605.
